# Test results published in US12043645B2, “Adenosine analogs as methyltransferase inhibitors for treating cancer” (MEMORIAL SLOAN KETTERING CANCER CENTER, priority 2017, dated 2024).
# Key:
# Assay type in all cases: cell-based
# [1] = tested on: MCF-7 cells (BAF155 and PABP1 biomarkers); assay: EC50 assay: western blot of BAF155 and PABP1 biomarkers in MCF-7 cells; conditions: Homo sapiens, MCF7, 48 h, two days treatment
# Description: (§1) 1˜2×10e^5 MCF-7 cells or MDA-MB-231 cells per were seeded into 6-well plate. Two days later, cells were treated with inhibitors or control for additional two days. Then cells were collected by trypsinization, washed with Dulbecco's phosphate buffer saline and lysed by suspension in lysis buffer. The suspension was kept on ice for 30 min to achieve complete lysis or the suspension can be sonicated to achieve complete lysis. After centrifugation, supernatant were collected and total protein was quantified, and western blot samples were prepared with the SDS sample buffer Proteins were transferred to a nitrocellulose membrane for 1.5 hr at 350 mA at cold room. Membranes were blocked with 5% nonfat milk dissolved in PBST at room temperature for 1 hour and incubated overnight with primary antibody diluted in 5% nonfat milk dissolved in PBST at 4° C. Membranes were then washed with PBST for 10 min/each three times, and incubated with HRP-conjugated secondary antibody for 1 hour at room temperature, and washed with PBST for 10 min/each three times, and then detected by ECL reaction and X-ray film exposure. BAF155 and PABP1 were used as biomarkers to determine the EC50 values.
# [2] = tested on: MDA-MB-231 cells (BAF155 and PABP1 biomarkers); assay: EC50 assay: western blot of BAF155 and PABP1 biomarkers in MDA-MB-231 cells; conditions: Homo sapiens, 48 h, two days treatment
# Description: as §1
# [3] = tested on: HCC1954 breast cancer cells; assay: Transwell invasion assay
# Description: In another example, a compound's effect on cancer cell migration and invasion were evaluated in a transwell invasion assay. In one such example, addition of compound 6 in a concentration of 5 μM and 10 μM caused an approximately 50% and an approximately 75% reduction, respectively, of invasion of HCC1954 breast cancer cells in the assay.
SMILES,EC50 [1],EC50 [2],reduction of invasion of HCC1954 breast cancer cells ([3]; concentration of 5 μM),reduction of invasion of HCC1954 breast cancer cells ([3]; concentration of 10 μM)
CC(=O)Oc1cc(C)cc(C)c1C(C)(C)CC(=O)N[C@@H](CC[C@H](CNCc1ccccc1)C[C@H]1O[C@@H](n2cnc3c(N)ncnc32)[C@@H](O)C1O)C(=O)O (stereo partly shown) [Example 2],10 µM,–,–,–
COc1ccc(CCNC(=O)[C@H](CC[C@H](CNCc2ccccc2)C[C@H]2O[C@@H](n3cnc4c(N)ncnc43)[C@@H](O)C2O)NC(=O)CC(C)(C)c2c(C)cc(C)cc2OC(C)=O)cc1 (stereo partly shown) [Example 3],< 5 µM,–,–,–
COc1ccc(CCNC(=O)[C@@H](N)CC[C@H](CNCc2ccccc2)C[C@H]2O[C@@H](n3cnc4c(N)ncnc43)[C@@H](O)C2O)cc1 (stereo partly shown) [Example 1],15 µM,–,–,–

# Further lines, with some results ahead:
EC50 [1],EC50 [2],SMILES,reduction of invasion of HCC1954 breast cancer cells ([3]; concentration of 5 μM),reduction of invasion of HCC1954 breast cancer cells ([3]; concentration of 10 μM)
< 10 µM,–,CC1=CC(=O)C(C(C)(C)CC(=O)N[C@@H](CC[C@H](CNCc2ccccc2)C[C@H]2O[C@@H](n3cnc4c(N)ncnc43)[C@@H](O)C2O)C(=O)O)=CC1=O (stereo partly shown) [Example 4],–,–
–,< 0.5 µM,COc1ccc(CCNC(=O)C(CC[C@H](CNCc2ccccc2)C[C@H]2O[C@@H](n3cnc4c(N)ncnc43)[C@@H](O)C2O)NC(=O)CC(C)(C)C2=C(C)C(=O)C(C)=C(C)C2=O)cc1 (stereo partly shown) [Example 6],approximately 50%,approximately 75%
